The test system of the series is Guinea pig, Hartley-Dunkin.

Entries after “also recorded” stand apart in the source; their conditions may differ.

The record followed here is US20260263400A1, “COMPOUND COMPOSITION INCLUDING TRANEXAMIC ACID AND TRETINOIN” (Nanjing Indetek Laboratory Co., Ltd., priority 2023, published 2026).

In the case of `O=[N+]([O-])c1ccc(Cl)c([N+](=O)[O-])c1` [1-Chloro-2,4-dinitrobenzene], under “D15, D31, D38”, the “body weight compared with the negative control group” value was “male animals showed slow weight gain; also recorded: female animals showed no significant difference in body weight”. Further, the “incidence of allergic reaction” value (after challenge) was 100%.
